According to PubChem BioAssay (NCI):
Values joined by “and” are separate entries in the source; they are usually repeats but may differ in a detail not shown here. Identical values can stand only once.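 Growth conditions: 96-well plates. Treatment: test compound, 48 hours, 5 concentrations. Analysis: linear interpolation between bracketing concentrations; unreached endpoints set to highest concentration. The concentration for 50% growth inhibition is given as GI50. TGI is the concentration that stops growth completely.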

Assays:
Experiment in all cases: inhibition of tumour cell growth, NCI panel, 48 h
SK-OV-3 ovarian = tested on: SK-OV-3 ovarian
RXF 393 renal = tested on: RXF 393 renal
HCT-116 colon = tested on: HCT-116 colon
HOP-92 NSCLC = tested on: HOP-92 NSCLC
OVCAR-4 ovarian = tested on: OVCAR-4 ovarian
786-0 renal = tested on: 786-0 renal
EKVX NSCLC = tested on: EKVX NSCLC
NCI-H226 lung = tested on: NCI-H226 lung
MALME-3M melanoma = tested on: MALME-3M melanoma
CAKI-1 renal = tested on: CAKI-1 renal
UO-31 renal = tested on: UO-31 renal
MCF7 breast = tested on: MCF7 breast
SF-268 CNS = tested on: SF-268 CNS
SN12C renal = tested on: SN12C renal
HT29 colon = tested on: HT29 colon
SK-MEL-2 melanoma = tested on: SK-MEL-2 melanoma
MDA-N = tested on: MDA-N
SR leukemia = tested on: SR leukemia
SW-620 colon = tested on: SW-620 colon
COLO 205 colon = tested on: COLO 205 colon
ACHN renal = tested on: ACHN renal
IGROV1 ovarian = tested on: IGROV1 ovarian
HL-60(TB) leukemia = tested on: HL-60(TB) leukemia
TK-10 renal = tested on: TK-10 renal
A549 NSCLC = tested on: A549 NSCLC
OVCAR-3 ovarian = tested on: OVCAR-3 ovarian
HS 578T breast = tested on: HS 578T breast
HOP-62 NSCLC = tested on: HOP-62 NSCLC
MDA-MB-435 = tested on: MDA-MB-435
BT-549 breast = tested on: BT-549 breast
K-562 leukemia = tested on: K-562 leukemia
HCT-15 colon = tested on: HCT-15 colon
MOLT-4 leukemia = tested on: MOLT-4 leukemia
HCC-2998 colon = tested on: HCC-2998 colon
DU-145 prostate = tested on: DU-145 prostate
MDA-MB-231 breast = tested on: MDA-MB-231 breast
A498 renal = tested on: A498 renal
PC-3 prostate = tested on: PC-3 prostate
T-47D breast = tested on: T-47D breast
UACC-62 melanoma = tested on: UACC-62 melanoma
CCRF-CEM leukemia = tested on: CCRF-CEM leukemia
SNB-19 CNS = tested on: SNB-19 CNS
NCI-H460 lung = tested on: NCI-H460 lung
SF-295 CNS = tested on: SF-295 CNS
KM12 colon = tested on: KM12 colon
U251 CNS = tested on: U251 CNS
RPMI-8226 leukemia = tested on: RPMI-8226 leukemia
UACC-257 melanoma = tested on: UACC-257 melanoma
NCI-H23 lung = tested on: NCI-H23 lung
NCI-H522 lung = tested on: NCI-H522 lung
SF-539 CNS = tested on: SF-539 CNS
SK-MEL-5 melanoma = tested on: SK-MEL-5 melanoma
M14 melanoma = tested on: M14 melanoma
SNB-75 CNS = tested on: SNB-75 CNS
OVCAR-8 ovarian = tested on: OVCAR-8 ovarian
SK-MEL-28 melanoma = tested on: SK-MEL-28 melanoma
OVCAR-5 ovarian = tested on: OVCAR-5 ovarian
NCI/ADR-RES ovarian = tested on: NCI/ADR-RES ovarian
LOX IMVI melanoma = tested on: LOX IMVI melanoma

Cc1cn(C2CC(N(O)Cc3ccccc3)C(CO[Si](C)(C)C(C)(C)C)O2)c(=O)[nH]c1=O (configuration not stated)
GI50 (SK-OV-3 ovarian): 62 µM and 16.5 µM | TGI (SK-OV-3 ovarian): > 100 µM and 30.1 µM | TGI (RXF 393 renal): 26.8 µM | TGI (HCT-116 colon): 34.8 µM and 29.7 µM | TGI (HOP-92 NSCLC): 36.8 µM and 29.6 µM | TGI (OVCAR-4 ovarian): 83.6 µM and 31.5 µM | TGI (786-0 renal): 30.1 µM and 31.1 µM | TGI (EKVX NSCLC): > 100 µM and 33.9 µM | TGI (NCI-H226 lung): 35.6 µM and 36.9 µM | TGI (MALME-3M melanoma): 31.8 µM | TGI (CAKI-1 renal): 76.1 µM and 31.1 µM | GI50 (UO-31 renal): 32.6 µM and 12.3 µM | TGI (UO-31 renal): > 100 µM and 24.9 µM | TGI (MCF7 breast): > 100 µM and 35.1 µM | GI50 (SF-268 CNS): 34.6 µM and 16.7 µM | TGI (SF-268 CNS): > 100 µM and 31 µM | TGI (SN12C renal): 30.6 µM and 29.7 µM | TGI (HT29 colon): 52.9 µM and 31.5 µM | TGI (SK-MEL-2 melanoma): 38.3 µM | TGI (MDA-N): 35.1 µM and 31.7 µM | TGI (SR leukemia): 89.4 µM | TGI (SW-620 colon): 69.2 µM and 34.1 µM | TGI (COLO 205 colon): 35.8 µM and 32.6 µM | TGI (ACHN renal): 98.1 µM and 31.4 µM | TGI (IGROV1 ovarian): 44.8 µM and 29.4 µM | TGI (HL-60(TB) leukemia): > 100 µM | GI50 (TK-10 renal): 37.8 µM and 18 µM | TGI (TK-10 renal): > 100 µM and 31.8 µM | GI50 (A549 NSCLC): 35.8 µM and 16.7 µM | TGI (A549 NSCLC): > 100 µM and 31.5 µM | TGI (OVCAR-3 ovarian): 32 µM | TGI (HS 578T breast): 41.6 µM and 34.5 µM | TGI (HOP-62 NSCLC): 36.5 µM and 29.9 µM | TGI (MDA-MB-435): 33.1 µM and 31.9 µM | TGI (BT-549 breast): 34.7 µM and 30 µM | TGI (K-562 leukemia): > 100 µM | TGI (HCT-15 colon): 96.6 µM | TGI (MOLT-4 leukemia): > 100 µM | TGI (HCC-2998 colon): 41.7 µM and 34.3 µM | TGI (DU-145 prostate): > 100 µM and 32 µM | TGI (MDA-MB-231 breast): 32.6 µM and 31.3 µM | TGI (A498 renal): 48.7 µM and 26.8 µM | TGI (PC-3 prostate): 61.7 µM and 28 µM | GI50 (T-47D breast): 61.7 µM and 18.6 µM | TGI (T-47D breast): > 100 µM and 33.6 µM | TGI (UACC-62 melanoma): 26 µM and 30 µM | TGI (CCRF-CEM leukemia): > 100 µM | TGI (SNB-19 CNS): > 100 µM and 33.2 µM | TGI (NCI-H460 lung): 33.3 µM and 32.2 µM | TGI (SF-295 CNS): 39.6 µM and 31 µM | TGI (KM12 colon): 51.7 µM and 31 µM | TGI (U251 CNS): 38.6 µM and 28.4 µM | TGI (RPMI-8226 leukemia): > 100 µM | TGI (UACC-257 melanoma): 67.5 µM and 30 µM | TGI (NCI-H23 lung): 66.3 µM and 31.3 µM | TGI (NCI-H522 lung): 32.2 µM | TGI (SF-539 CNS): 33.2 µM and 29.5 µM | TGI (SK-MEL-5 melanoma): 33.1 µM and 30.2 µM | TGI (M14 melanoma): 39 µM and 30.6 µM | GI50 (SNB-75 CNS): 39 µM and 16.2 µM | TGI (SNB-75 CNS): > 100 µM and 29.8 µM | TGI (OVCAR-8 ovarian): 84.1 µM and 32 µM | GI50 (SK-MEL-28 melanoma): 37.5 µM and 16.9 µM | TGI (SK-MEL-28 melanoma): > 100 µM and 30.8 µM | TGI (OVCAR-5 ovarian): 42.8 µM and 32.7 µM

COc1ccc(C2OC[C@H]3O[C@@H](OCc4ccccc4)[C@H](O)[C@@H](O)[C@@H]3O2)cc1 (some centres not stated)
TGI (SK-OV-3 ovarian): > 100 µM | TGI (RXF 393 renal): > 100 µM | TGI (HCT-116 colon): > 100 µM | TGI (HOP-92 NSCLC): > 100 µM | TGI (OVCAR-4 ovarian): > 100 µM | TGI (EKVX NSCLC): > 100 µM | TGI (NCI-H226 lung): > 100 µM | TGI (CAKI-1 renal): > 100 µM | TGI (UO-31 renal): > 100 µM | TGI (MCF7 breast): > 100 µM | TGI (SF-268 CNS): > 100 µM | TGI (SN12C renal): > 100 µM | TGI (HT29 colon): > 100 µM | TGI (SK-MEL-2 melanoma): > 100 µM | TGI (MDA-N): > 100 µM | TGI (SR leukemia): > 100 µM | TGI (SW-620 colon): > 100 µM | TGI (COLO 205 colon): > 100 µM | TGI (ACHN renal): > 100 µM | TGI (IGROV1 ovarian): > 100 µM | TGI (TK-10 renal): > 100 µM | TGI (A549 NSCLC): > 100 µM | TGI (OVCAR-3 ovarian): > 100 µM | TGI (HS 578T breast): > 100 µM | TGI (HOP-62 NSCLC): > 100 µM | TGI (MDA-MB-435): > 100 µM | TGI (BT-549 breast): > 100 µM | TGI (K-562 leukemia): > 100 µM | TGI (NCI/ADR-RES ovarian): > 100 µM | TGI (HCT-15 colon): > 100 µM | TGI (MOLT-4 leukemia): > 100 µM | TGI (HCC-2998 colon): > 100 µM | TGI (DU-145 prostate): > 100 µM | TGI (MDA-MB-231 breast): > 100 µM | TGI (A498 renal): > 100 µM | TGI (PC-3 prostate): > 100 µM | TGI (UACC-62 melanoma): > 100 µM | TGI (CCRF-CEM leukemia): > 100 µM | TGI (SNB-19 CNS): > 100 µM | TGI (NCI-H460 lung): > 100 µM | TGI (SF-295 CNS): > 100 µM | TGI (U251 CNS): > 100 µM | TGI (RPMI-8226 leukemia): > 100 µM | TGI (UACC-257 melanoma): > 100 µM | TGI (NCI-H23 lung): > 100 µM | TGI (SF-539 CNS): > 100 µM | TGI (SK-MEL-5 melanoma): > 100 µM | TGI (SNB-75 CNS): > 100 µM | TGI (LOX IMVI melanoma): > 100 µM | TGI (OVCAR-8 ovarian): > 100 µM | TGI (SK-MEL-28 melanoma): > 100 µM | TGI (OVCAR-5 ovarian): > 100 µM
